In US9573911B2, “Diphosphate mimetics and uses thereof” (President and Fellows of Harvard College, priority 2011, dated 2017):

Assays:
OGT = molecular target: T1, OGT (Homo sapiens, UniProt O15294); assay: Western blot of BZX inhibitor treated cell lysates (O-GlcNAcylation by added OGT); assay type: biochemical; settings: MCF-10A ErbB2 cell lysates; OGT 2 μM, UDP-GlcNAc 1 mM, BZX inhibitors 200 μM
T1 construct: hOGT4.5 construct (spanning residues 313-1031 based on the numbering of the full length human protein); made in house
T1 sequence (O15294 313-1031 isoform O15294-3): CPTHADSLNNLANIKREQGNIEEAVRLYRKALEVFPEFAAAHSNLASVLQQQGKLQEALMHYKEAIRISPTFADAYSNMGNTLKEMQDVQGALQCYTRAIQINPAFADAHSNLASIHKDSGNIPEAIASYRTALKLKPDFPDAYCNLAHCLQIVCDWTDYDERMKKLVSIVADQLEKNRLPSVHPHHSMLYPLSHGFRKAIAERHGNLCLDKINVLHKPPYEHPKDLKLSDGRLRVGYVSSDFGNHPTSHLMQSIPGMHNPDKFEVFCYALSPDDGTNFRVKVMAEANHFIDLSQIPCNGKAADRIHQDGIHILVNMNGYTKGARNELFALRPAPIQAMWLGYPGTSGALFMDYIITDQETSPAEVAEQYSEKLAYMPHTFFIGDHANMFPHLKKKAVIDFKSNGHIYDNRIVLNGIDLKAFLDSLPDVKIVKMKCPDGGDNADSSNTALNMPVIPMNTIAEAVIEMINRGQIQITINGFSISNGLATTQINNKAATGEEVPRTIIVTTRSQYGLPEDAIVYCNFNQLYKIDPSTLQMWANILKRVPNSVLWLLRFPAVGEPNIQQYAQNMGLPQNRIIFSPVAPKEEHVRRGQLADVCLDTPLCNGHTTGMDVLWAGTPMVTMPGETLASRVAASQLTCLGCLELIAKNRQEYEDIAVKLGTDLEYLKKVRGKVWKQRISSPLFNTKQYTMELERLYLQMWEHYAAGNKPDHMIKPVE
Method: […] ErbB2 cells were maintained in DMEM/F12 (Invitrogen) supplemented with 5% horse serum (Invitrogen), 20 ng/ml EGF (Peprotech), 10 μg/ml insulin (Sigma), 100 ng/ml cholera toxin (Sigma), […] hydrocortisone (Sigma), 50 U/ml penicillin, and 50 μg/ml streptomycin (Invitrogen) to reach 70% confluence. The cells were then grown for another 9 hours in glucose starvation medium (DMEM-no glucose (Invitrogen) supplemented with 1% horse serum, 50 U/ml penicillin and 50 μg/ml streptomycin) before harvest. The cell lysates, prepared as described above, were divided into four tubes with each tube containing the same amount of protein. Nothing was added to tube I; OGT (2 μM) and DMSO (1%) were added into tube II; OGT (2 μM) and (2) (200 μM) were added to tube III; OGT (2 μM) and 1 (200 μM) were added to tube IV. The four samples were incubated at room temperature for 30 min before adding UDP-GlcNAc (1 mM) and incubated for another 2 hours. After incubation, all samples were analyzed with SDS-PAGE and a Western blot was carried out using the anti-O-GlcNAc antibody as described above.

MCF-10A ErbB2 cells = assay: Western blot of BZX-treated human breast cancer cells (O-GlcNAcylation); assay type: cell-based; settings: 200 μM
Method: Western Blot of BZX-Treated Human Breast Cancer Cells MCF-10A ErbB2 cells were obtained from Joan Brugge's lab at Harvard Medical School (Boston, Mass.). Cells were maintained in DMEM/F12 (Invitrogen) supplemented with 5% horse serum (Invitrogen), 20 ng/ml EGF (Peprotech), 10 μg/ml insulin (Sigma), 100 ng/ml cholera toxin (Sigma), […] hydrocortisone (Sigma), 50 U/ml penicillin and 50 μg/ml streptomycin (Invitrogen). When cells were grown to 70% confluence, old growth medium was removed. Cells were rinsed twice with PBS, and were grown in glucose starvation medium (DMEM-no glucose; Invitrogen) supplemented with 1% horse serum, 50 U/ml penicillin and 50 μg/ml streptomycin) in the absence (control) and presence of (2) (200 μM) for 4 h. PUGNAc (100 μM, Sigma) and glucosamine (2 mM, EMD) were added to the cells and incubated for another 3 h. Cell lysates from 2−5×10^6 cells were prepared in M-PER mammalian protein extraction reagent (Pierce) supplemented with protease inhibitor cocktail (Sigma). Lysates were cleared by centrifugation at 16,000 g for 10 min at 4° C. and analyzed by SDS-PAGE. Proteins were transferred to a nitrocellulose membrane (Bio-Rad Laboratories) and O-GlcNAcylation was detected with anti-O-GlcNAc antibody (CTD 110.6, Sigma, used at 1:5,000) and a secondary anti-mouse IgM-HRP antibody (Pierce, used at 1:20,000). Western Blot of BZX Inhibitor Treated Cell Lysates

GRK4 = molecular target: T2, GRK4 (Homo sapiens, UniProt P32298); assay: Kinase profiling, Invitrogen Z'-LYTE; assay type: biochemical; settings: Table 2
T2 construct: purchased Invitrogen
Method: (§1) Kinase profiling was conducted using Invitrogen Z'-LYTE screening protocol and assay conditions found at www.invitrogen.com. Compound (2) inhibited PLK1 completely at 5 μM.

MAPKAPK5 (PRAK) = molecular target: T3, MAPKAPK5 (PRAK) (Homo sapiens, UniProt Q8IW41); assay: Kinase profiling, Invitrogen Z'-LYTE; assay type: biochemical; settings: Table 2
T3 construct: purchased Invitrogen
T3 sequence (Q8IW41 1-473): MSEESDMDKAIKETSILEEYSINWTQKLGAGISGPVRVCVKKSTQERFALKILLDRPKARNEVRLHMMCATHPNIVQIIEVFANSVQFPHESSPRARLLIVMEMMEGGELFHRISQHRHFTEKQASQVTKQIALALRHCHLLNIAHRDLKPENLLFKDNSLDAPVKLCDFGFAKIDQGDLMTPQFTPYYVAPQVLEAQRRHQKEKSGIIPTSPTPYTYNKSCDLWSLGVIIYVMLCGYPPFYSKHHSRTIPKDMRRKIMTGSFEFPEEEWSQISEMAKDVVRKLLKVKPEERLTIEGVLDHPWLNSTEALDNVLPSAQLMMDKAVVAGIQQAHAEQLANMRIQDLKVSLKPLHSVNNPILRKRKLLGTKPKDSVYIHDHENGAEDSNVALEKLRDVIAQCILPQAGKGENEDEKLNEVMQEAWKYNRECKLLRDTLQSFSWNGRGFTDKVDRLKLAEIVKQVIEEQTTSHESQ
Method: as §1

T2 sequence (P32298 whole entry): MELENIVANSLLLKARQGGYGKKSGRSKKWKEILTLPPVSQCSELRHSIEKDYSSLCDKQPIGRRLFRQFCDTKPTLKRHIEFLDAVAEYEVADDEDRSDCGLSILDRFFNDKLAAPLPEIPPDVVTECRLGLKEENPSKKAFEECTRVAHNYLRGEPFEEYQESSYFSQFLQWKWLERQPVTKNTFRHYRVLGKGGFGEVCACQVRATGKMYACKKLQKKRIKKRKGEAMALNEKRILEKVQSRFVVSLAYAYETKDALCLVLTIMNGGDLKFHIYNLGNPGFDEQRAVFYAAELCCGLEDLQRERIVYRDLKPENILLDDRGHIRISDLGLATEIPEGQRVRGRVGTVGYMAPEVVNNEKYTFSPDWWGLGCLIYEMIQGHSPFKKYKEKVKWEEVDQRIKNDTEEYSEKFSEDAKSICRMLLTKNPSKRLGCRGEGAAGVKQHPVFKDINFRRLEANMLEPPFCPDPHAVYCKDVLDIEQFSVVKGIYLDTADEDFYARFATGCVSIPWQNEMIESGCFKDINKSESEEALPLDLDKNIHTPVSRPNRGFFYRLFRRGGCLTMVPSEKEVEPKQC

COc1ccc(OC(=O)n2c(=O)oc3cc(C(C)=O)ccc32)cc1 [Compound 2]
inhibition of OGT activity (O-GlcNAcylation) in cell lysates (OGT): more potent inhibitor of OGT activity than compound (1)
inhibition of O-GlcNAcylation in cells (MCF-10A ErbB2 cells): inhibits global O-GlcNAcylation in cells
% Inhibition Point 1 (GRK4): 77%
% Inhibition Point 2 (GRK4): 76%
% Inhibition mean (GRK4): 76%
% Inhibition Point 1 (MAPKAPK5 (PRAK)): −146%
% Inhibition Point 2 (MAPKAPK5 (PRAK)): −147%
% Inhibition mean (MAPKAPK5 (PRAK)): −146%
